Molecules are shown by their SMILES.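 The compound was tested at five concentrations on cells cultured in 96-well plates, with a 48-hour exposure period. Abbreviation: GI50, concentration required for 50% inhibition of growth.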 Calls of active or inactive are those of the source. Cut-off read from the data, not from the text of the source: active = GI50 up to about 1.1 µM and inactive = higher. *1 amine or outer side, *2 acyl side, *3 side chain or, on linkers, in order; H or OH if unused. Where a SMILES comes first, the peptide text is derived from it. Bridges are numbered along the chain shown (N, C = ends). [ ]: non-standard residue; d: D form. X36 = CC[C@H](C)[C@@H](N[*:1])[C@@H](O)CC(=O)O[C@H](C(=O)[C@H](C)C(=O)[*:2])C(C)C; NMeY = CN[C@@H](Cc1ccc(O)cc1)C(=O)O Some results are limits rather than exact numbers.

The text below walks through data of ChEMBL document CHEMBL1201862, “PubChem BioAssay data set” (2004).

Assay in all cases: DTP human tumour cell line panel, 48 h
The test system of assay [1] is HT-29.
The test system of assay [2] is EKVX.
Assay [3] concerns ACHN.
For assay [4], the system named is K562.
Assay [5] deals with RXF 393.
Assay [6] relates to COLO 205.
Assay [7] relates to CAKI-1.
Assay [8] has as its system SN12C.
Assay [9] has as its system SK-MEL-2.
Assay [10] concerns SK-OV-3.
In assay [11] the test system is HCC 2998.
Assay [12] has as its system HCT-15.
The test system of assay [13] is DU-145.
The subject of assay [14] is UACC-62.
Assay [15] concerns UO-31.
The subject of assay [16] is PC-3.
Assay [17] relates to LOX IMVI.
Assay [18] concerns NCI-H460.
In assay [19] the test system is SF-539.
For assay [20], the system named is SR.

Take `CN1C(=O)N/C(=C\c2ccc(S(=O)(=O)NN)cc2)C1=O`: the GI50 in assay [1], in [2], in assay [3], in [4], in assay [5] and in [6] was > 100 µM (inactive) throughout. Besides, the GI50 is > 100 µM (inactive) in assay [7]; > 100 µM (inactive) in [8]; > 100 µM (inactive) in assay [9]; > 100 µM (inactive) in [10]; > 100 µM (inactive) in assay [11]; more than 100 µM in assay [12]. Further, the GI50 in assay [13], in [14], in [15], in assay [16] and in [17] was > 100 µM (inactive) throughout.

Turning to `O=c1[nH]nc(Cc2ccccc2)n1N=C1CCCCC1`, the GI50 was 58.7 µM (inactive) in assay [1]; < 0.01 µM (active) in assay [2]; > 100 µM (inactive) in assay [3]; > 100 µM (inactive) in assay [4]; > 100 µM (inactive) in assay [5]; > 100 µM (inactive) in assay [6]. Moreover, the GI50 was > 100 µM (inactive) in assay [7]; > 100 µM (inactive) in assay [18]; > 100 µM (inactive) in assay [8]; > 100 µM (inactive) in [9]; more than 100 µM in [12]; > 100 µM (inactive) in assay [13]. Also, the GI50 in assay [14], in assay [15], in assay [16] and in [17] was > 100 µM (inactive) in each case.

Turning to `CC[C@H](C)[C@H]1NC(=O)[C@@H](N)[C@@H](C)OC(=O)[C@H](Cc2ccc(OC)cc2)N(C)C(=O)[C@@H]2CCCN2C(=O)[C@H](CC(C)C)NC(=O)[C@@H](C)C(=O)[C@H](C(C)C)OC(=O)C[C@@H]1O` (H-T[X36]LP[NMeY](Me); ester 1-C), the GI50 in assay [1] is 3.67 µM (inactive); in assay [2], 44.2 µM (inactive); in assay [3], 29.1 µM (inactive); in assay [4], 18.4 µM (inactive); in [5], 8.13 µM (inactive); in assay [18] it was 30.3 µM (inactive). Further, the GI50 in assay [8] is 29.6 µM (inactive); in assay [19], 26.8 µM (inactive); in [9], 46 µM (inactive); in assay [10], 35.6 µM (inactive); in [11], 54.1 µM (inactive); in assay [12], 36.7 µM. Besides, the GI50 in [14] was 29.9 µM (inactive); in assay [15], 6.62 µM (inactive); in [16] it was 14.3 µM (inactive); in [17], 21.6 µM (inactive); in assay [20], 16.3 µM (inactive).

On to `O=C(COc1ccc(OCC(=O)N2C(=O)CN(c3ccc(Cl)cc3)C2=S)cc1)N1C(=O)CN(c2ccc(Cl)cc2)C1=S`, for which the GI50 is 31.4 µM (inactive) in [1]; 6.62 µM (inactive) in [2]; 26.4 µM (inactive) in [3]; 29.3 µM (inactive) in assay [4]; 22.8 µM (inactive) in [5]; 25.6 µM (inactive) in assay [6]. Also, the GI50 was 19.6 µM (inactive) in assay [7]; 23.3 µM (inactive) in assay [18]; 30.5 µM (inactive) in assay [8]; 13.3 µM (inactive) in [9]; 26.9 µM (inactive) in assay [10]; 21.7 µM (inactive) in assay [11]. Further, the GI50 in assay [12] is 29.9 µM; in assay [13], 43.2 µM (inactive); in assay [14] it was 16.5 µM (inactive); in [15] it was 29 µM (inactive); in assay [16] it was 23.9 µM (inactive).

Consider `Cc1ccc2c(c1)nc1n2C(c2c(F)cccc2F)SC1` (centres undefined), for which the GI50 is 28.8 µM (inactive) in assay [1]; 30.8 µM (inactive) in assay [2]; 35.2 µM (inactive) in assay [3]; 22.3 µM (inactive) in assay [4]; 27 µM (inactive) in [5]; 32.3 µM (inactive) in [6]. Moreover, the GI50 in assay [7] is 27.9 µM (inactive); in assay [18], 52.8 µM (inactive); in assay [8], 39.4 µM (inactive); in [19], 24.3 µM (inactive); in assay [9], 20 µM (inactive); in assay [10], 52.6 µM (inactive). For the same molecule, the GI50 in [11] is 32.1 µM (inactive); in assay [12], 27.9 µM; in assay [14] it was > 10 µM (inactive); in assay [15], 26.9 µM (inactive); in assay [16] it was 20.7 µM (inactive); in assay [17] it was 33.5 µM (inactive). The GI50 in assay [20] is 24.4 µM (inactive).

In the case of `O=C(CSCC(=O)N/N=C\c1ccc(O)c(O)c1O)N/N=C\c1ccc(O)c(O)c1O`, the GI50 was 11.6 µM (inactive) in [1]; 21.3 µM (inactive) in assay [2]; 5.87 µM (inactive) in [3]; 34.9 µM (inactive) in assay [5]; 23.3 µM (inactive) in assay [6]; 16.7 µM (inactive) in assay [7]. Also, the GI50 in assay [18] is 23.3 µM (inactive); in assay [8] it was 21.2 µM (inactive); in assay [19] it was 7.67 µM (inactive); in assay [9] it was 28.3 µM (inactive); in assay [10], 31.6 µM (inactive); in assay [11] it was 14.7 µM (inactive). Also, the GI50 is 13.4 µM in assay [12]; 14.1 µM (inactive) in assay [13]; 15.6 µM (inactive) in assay [14]; 13.7 µM (inactive) in [15]; 2.18 µM (inactive) in [17]; 2.33 µM (inactive) in assay [20].

Turning to `O=C(CCN1CCCCC1CO)Nc1ccc2c(c1)C(=O)c1ccc(NC(=O)CCN3CCCCC3CO)cc1C2=O` (centres undefined), the GI50 is 11.4 µM (inactive) in assay [1]; 19.1 µM (inactive) in [2]; 11.8 µM (inactive) in [3]; 6.25 µM (inactive) in assay [4]; 2 µM (inactive) in assay [5]; 7.71 µM (inactive) in assay [6]. Further, the GI50 in assay [7] was 13.5 µM (inactive); in assay [18] it was 6.58 µM (inactive); in assay [8] it was 6.68 µM (inactive); in assay [19], 3.6 µM (inactive); in [9], 4.58 µM (inactive); in [10], 13.7 µM (inactive). For the same molecule, the GI50 was 9.35 µM (inactive) in assay [11]; 14.2 µM in assay [12]; 8.95 µM (inactive) in assay [14]; 13.8 µM (inactive) in assay [15]; 6.93 µM (inactive) in assay [17]; 10.7 µM (inactive) in [20].

As for `COC(=O)[C@@]12C(=O)CCC(=O)C1C1C(=CC2C)O[C@@H]2OC3(CCCCC3)O[C@H]12` (some centres undefined), the GI50 in [1] is 47.6 µM (inactive); in assay [2], 99.8 µM (inactive); in assay [3] it was > 55.1 µM (inactive); in [4], 40.3 µM (inactive); in assay [5] it was 69.2 µM (inactive); in assay [6] it was > 68.1 µM (inactive). Also, the GI50 is > 90.4 µM (inactive) in [7]; > 100 µM (inactive) in assay [18]; > 100 µM (inactive) in assay [8]; > 100 µM (inactive) in assay [19]; > 100 µM (inactive) in assay [9]; > 100 µM (inactive) in assay [10]. In addition, the GI50 in [11] is > 100 µM (inactive); in assay [12], 54.2 µM; in assay [14], > 88.7 µM (inactive); in assay [15], > 100 µM (inactive); in assay [17] it was > 72.1 µM (inactive); in assay [20] it was 25.9 µM (inactive).

In the case of `Cc1cc(Cl)ccc1N1C(=O)C(=O)C(c2nc3ccccc3s2)/C(=N\NC(=O)c2ccccc2O)C1=O` (centres undefined), the GI50 in assay [1], in [2], in assay [3], in [4], in assay [5] and in assay [6] was > 100 µM (inactive) throughout. The GI50 in assay [7], in [18], in assay [8], in assay [19], in [9] and in assay [10] was > 100 µM (inactive) in each case. Also, the GI50 in assay [11] was > 100 µM (inactive); in assay [12] it was more than 100 µM; in assay [14], > 100 µM (inactive); in [15], > 100 µM (inactive); in assay [17], > 100 µM (inactive); in assay [20], > 100 µM (inactive).

As to `Clc1ccccc1/C=c1\nc(-c2ccccc2)n2c1nc1ccccc12`, the GI50 in assay [1] was > 100 µM (inactive); in [2], 13.4 µM (inactive); in [3], > 100 µM (inactive); in [4] it was > 100 µM (inactive); in assay [5], 18.2 µM (inactive); in assay [6], > 100 µM (inactive). Besides, the GI50 in assay [7] was 68.7 µM (inactive); in assay [18] it was > 100 µM (inactive); in assay [8], > 100 µM (inactive); in [19], 20 µM (inactive); in assay [9], 45.3 µM (inactive); in assay [10] it was 25.3 µM (inactive). In addition, the GI50 is more than 100 µM in assay [12]; > 100 µM (inactive) in assay [13]; 30.8 µM (inactive) in [14]; > 100 µM (inactive) in assay [15]; 4.66 µM (inactive) in assay [16]; > 100 µM (inactive) in assay [17].

In the case of `Cc1c(NC(=O)CCl)c(=O)oc2c(C)c3occc(=O)c3cc12`, the GI50 in [1] was 14.9 µM (inactive); in [2], 18.9 µM (inactive); in assay [3], 16.6 µM (inactive); in assay [4] it was 10.1 µM (inactive); in assay [6], 14.3 µM (inactive); in assay [7], 12.3 µM (inactive). The GI50 in assay [18] was 10.7 µM (inactive); in assay [10], 18.2 µM (inactive); in assay [11] it was 16.9 µM (inactive); in [12] it was more than 10 µM; in assay [13] it was 23.7 µM (inactive); in [15] it was 10.5 µM (inactive). Further, the GI50 in [20] is 6.49 µM (inactive).

Broadly, the GI50 is the concentration giving 50% growth inhibition.
